This note sets out measurements from patent US9187472B2 (AbbVie Inc., priority 2012, dated 2015).

This assay has as its system PC3 cells. In words: NAMPT Cell Proliferation Assay. Format: cell-based. To be noted: Homo sapiens, PC-3, 120 h, 5 days incubation, cell viability by Cell Titer Glo. The protocol: NAMPT Cell Proliferation Assay
PC3 cells were seeded in 96-well black plates (Corning #3904) at 500 cells/well in 90 μl of RPMI media containing 10% heat-inactivated FBS and incubated overnight at 37° C. and 5% CO2 to allow cells to attach to wells. The following day, test compounds were serially diluted in neat DMSO to 1000× final concentrations prior to dilution with RPMI media to 10× and 1% DMSO. Ten μL of the 10× compounds were then transferred to wells containing cells to produce a dose response of 10-fold dilutions from 10 μM to 1×10^−5 μM. Cells were incubated for 5 days at 37° C. and 5% CO2, then cell viability was measured using Cell Titer Glo reagent (Promega #G7571). Percent inhibition values were calculated and fitted to a sigmoidal dose response curves using Assay Explorer software to determine IC50s.
For orientation: Cellular ATP, detected with luciferase, serves as a proxy for viable cell number.
Regarding `CCN(CC)CCC(=O)N1CCC(c2ccc(C(=O)NCc3ccn4ccnc4c3)cc2)CC1` [Example 928, 4-[1-(N,N-diethyl-beta-alanyl)piperidin-4-yl]-N-(imidazo[1,2-a]pyridin-7-ylmethyl)benzamide], the IC50 (usually the point on the concentration scale where inhibition reaches its midpoint) was 106 nM.

As to `O=C(NCc1ccn2ccnc2c1)Nc1ccc(C2CCN(C(=O)C(CO)c3ccccc3)CC2)cc1` (centres unmarked) [Example 948, 1-{4-[1-(3-hydroxy-2-phenylpropanoyl)piperidin-4-yl]phenyl}-3-(imidazo[1,2-a]pyridin-7-ylmethyl)urea], the half-inhibitory concentration (IC50) is 5.39 nM. For `O=C(NCc1cn2ccnc2cn1)c1ccc(C2CCN(C(=O)c3cc(F)ccc3F)CC2)s1` [Example 830, 5-[1-(2,5-difluorobenzoyl)piperidin-4-yl]-N-(imidazo[1,2-a]pyrazin-6-ylmethyl)thiophene-2-carboxamide] the value was 0.269 nM; for `O=C(NCc1ccn2ccnc2c1)Nc1ccc(C2CCN(C(=O)c3ccc4scnc4c3)CC2)cc1` [Example 1122, 1-{4-[1-(1,3-benzothiazol-5-ylcarbonyl)piperidin-4-yl]phenyl}-3-(imidazo[1,2-a]pyridin-7-ylmethyl)urea], 9.96 nM. For `O=C(NCc1ccn2ccnc2c1)c1ccc(S(=O)(=O)c2ccccc2)cc1` [Example 881, N-(imidazo[1,2-a]pyridin-7-ylmethyl)-4-(phenylsulfonyl)benzamide] the value was 8490 nM. With `O=C(NCc1ccn2ccnc2c1)c1ccc(C2CCN(C(=O)c3cc4ncccc4s3)CC2)cc1` [Example 983, N-(imidazo[1,2-a]pyridin-7-ylmethyl)-4-[1-(thieno[3,2-b]pyridin-2-ylcarbonyl)piperidin-4-yl]benzamide], the IC50 came to 724 nM. Compound `Cn1nc(C2CC2)cc1-c1ccc(C(=O)NCc2ccn3ccnc3c2)s1` [Example 892, 5-(3-cyclopropyl-1-methyl-1H-pyrazol-5-yl)-N-(imidazo[1,2-a]pyridin-7-ylmethyl)thiophene-2-carboxamide] yielded an IC50 of 6.76 nM. Regarding `O=C(NCc1ccn2ccnc2c1)Nc1ccc(C2CCN(C(=O)c3cc4ccccn4n3)CC2)cc1` [Example 1143, 1-(imidazo[1,2-a]pyridin-7-ylmethyl)-3-{4-[1-(pyrazolo[1,5-a]pyridin-2-ylcarbonyl)piperidin-4-yl]phenyl}urea], the IC50 is 17.4 nM. This IC50 is about 2.6-fold higher than that of the compound before.

For the compound `CC(C)C(=O)N1CCC(c2ccc(C(=O)NCc3ccc4ncnn4c3)s2)CC1` [Example 842, 5-[1-(2-methylpropanoyl)piperidin-4-yl]-N-([1,2,4]triazolo[1,5-a]pyridin-6-ylmethyl)thiophene-2-carboxamide], inhibition was half-maximal at 71.4 nM (IC50). Compound `N#Cc1ccc(F)c(C(=O)N2CCC(c3ccc(C(=O)NCc4ccn5ccnc5c4)cc3)CC2)c1` [Example 985, 4-[1-(5-cyano-2-fluorobenzoyl)piperidin-4-yl]-N-(imidazo[1,2-a]pyridin-7-ylmethyl)benzamide] came in with an IC50 of 28.3 nM.

Turning to `C[C@H]1CCCC[C@H]1OCC(=O)N1CCC(c2ccc(C(=O)NCc3ccn4ccnc4c3)cc2)CC1` [Example 931, N-(imidazo[1,2-a]pyridin-7-ylmethyl)-4-[1-({[(1R,2S)-2-methylcyclohexyl]oxy}acetyl)piperidin-4-yl]benzamide], it took 6.77 nM to reach half-maximal inhibition (IC50). Compared with the last compound, the IC50 is about 4.2-fold lower. The compound `COc1csc(C(=O)N2CCC(c3ccc(C(=O)NCc4ccn5ccnc5c4)cc3)CC2)c1` [Example 1092, N-(imidazo[1,2-a]pyridin-7-ylmethyl)-4-{1-[(4-methoxythiophen-2-yl)carbonyl]piperidin-4-yl}benzamide] showed an IC50 of 17.7 nM. Against the preceding compound, the IC50 is about 2.6-fold higher. Compound `O=C(Cc1ccc2nccn2c1)Nc1ccc(C2CCN(C(=O)c3ccc(F)cc3F)CC2)cc1` [Example 866, N-{4-[1-(2,4-difluorobenzoyl)piperidin-4-yl]phenyl}-2-(imidazo[1,2-a]pyridin-6-yl)acetamide] returned an IC50 of 0.525 nM. `N#Cc1cnc(C(=O)N2CCC(c3ccc(C(=O)NCc4ccn5ccnc5c4)cc3)CC2)c(Cl)c1` [Example 1089, 4-{1-[(3-chloro-5-cyanopyridin-2-yl)carbonyl]piperidin-4-yl}-N-(imidazo[1,2-a]pyridin-7-ylmethyl)benzamide]: it took 8.27 nM to reach half-maximal inhibition (IC50). The compound `O=C(NCc1ccn2ccnc2c1)Nc1ccc(C2CCN(C(=O)c3ncccc3Cl)CC2)cc1` [Example 1019, 1-(4-{1-[(3-chloropyridin-2-yl)carbonyl]piperidin-4-yl}phenyl)-3-(imidazo[1,2-a]pyridin-7-ylmethyl)urea] yielded an IC50 of 1.98 nM.

Turning to `CC[C@H](C)C(=O)N1CCC(c2ccc(NC(=O)NCc3ccn4ccnc4c3)c(F)c2)CC1` [Example 1073, 1-(2-fluoro-4-{1-[(2S)-2-methylbutanoyl]piperidin-4-yl}phenyl)-3-(imidazo[1,2-a]pyridin-7-ylmethyl)urea], it took 3.88 nM to reach half-maximal inhibition (IC50). For the compound `O=C(NCc1ccn2ccnc2c1)c1ccc(C2=CCN(c3ccncn3)CC2)cc1` [Example 1154, N-(imidazo[1,2-a]pyridin-7-ylmethyl)-4-[1-(pyrimidin-4-yl)-1,2,3,6-tetrahydropyridin-4-yl]benzamide], the concentration for half-maximal inhibition (IC50) is 170 nM. With `Cc1cccc(C(=O)N2CCC(c3ccc(C(=O)NCc4ccn5ccnc5c4)cc3)CC2)c1O` [Example 937, 4-[1-(2-hydroxy-3-methylbenzoyl)piperidin-4-yl]-N-(imidazo[1,2-a]pyridin-7-ylmethyl)benzamide], the IC50 was 80.9 nM. In turn, `CC(C)CS(=O)(=O)CC(=O)N1CCC(c2ccc(C(=O)NCc3ccn4ccnc4c3)cc2)CC1` [Example 929, N-(imidazo[1,2-a]pyridin-7-ylmethyl)-4-(1-{[(2-methylpropyl)sulfonyl]acetyl}piperidin-4-yl)benzamide] returned an IC50 of 24.7 nM.

As to `C/C=C(\C)C(=O)N1CCC(c2ccc(C(=O)NCc3ccn4ccnc4c3)cc2)CC1` [Example 935, N-(imidazo[1,2-a]pyridin-7-ylmethyl)-4-{1-[(2E)-2-methylbut-2-enoyl]piperidin-4-yl}benzamide], the IC50 turned out to be 10.3 nM.

Turning to `CCCc1c(C(=O)N2CCC(c3ccc(C(=O)NCc4ccn5ccnc5c4)cc3)CC2)cnn1C` [Example 1105, N-(imidazo[1,2-a]pyridin-7-ylmethyl)-4-{1-[(1-methyl-5-propyl-1H-pyrazol-4-yl)carbonyl]piperidin-4-yl}benzamide], half-maximal inhibition (IC50) required 2.6 nM. Regarding `O=C(CC1CCCC1)Nc1ccc(C(=O)NCc2cn3ccnc3cc2F)cc1` [Example 1079, 4-[(cyclopentylacetyl)amino]-N-[(7-fluoroimidazo[1,2-a]pyridin-6-yl)methyl]benzamide], the half-maximal inhibitory concentration (IC50) was found to be 18.2 nM. Take `O=C(CC1CCCC1)Nc1ccc(C(=O)NCc2cn3c(Cl)cnc3cn2)cc1` [Example 901, N-[(3-chloroimidazo[1,2-a]pyrazin-6-yl)methyl]-4-[(cyclopentylacetyl)amino]benzamide]: it took 865 nM to reach half-maximal inhibition (IC50). Against the preceding compound, the IC50 is about 48-fold higher. For `COc1ccsc1C(=O)N1CCC(c2ccc(C(=O)NCc3ccn4ccnc4c3)cc2)CC1` [Example 1063, N-(imidazo[1,2-a]pyridin-7-ylmethyl)-4-{1-[(3-methoxythiophen-2-yl)carbonyl]piperidin-4-yl}benzamide], the half-maximal inhibitory concentration (IC50) worked out at 1.89 nM.

Compound `COc1cc(OC)cc(C(=O)N2CCC(c3ccc(C(=O)NCc4ccn5ccnc5c4)cc3)CC2)c1` [Example 919, 4-[1-(3,5-dimethoxybenzoyl)piperidin-4-yl]-N-(imidazo[1,2-a]pyridin-7-ylmethyl)benzamide] displayed a concentration for half-maximal inhibition (IC50) of 101 nM. In turn, `O=C(NCc1ccn2ccnc2c1)c1ccc(C2CCN(C(=O)c3ccc4cccnc4c3)CC2)cc1` [Example 984, N-(imidazo[1,2-a]pyridin-7-ylmethyl)-4-[1-(quinolin-7-ylcarbonyl)piperidin-4-yl]benzamide] yielded a concentration for half-maximal inhibition (IC50) of 55.4 nM. Then `O=C(NCc1ccn2ccnc2c1)c1ccc(C2CCN(C(=O)c3cnc4ccccc4n3)CC2)cc1` [Example 989, N-(imidazo[1,2-a]pyridin-7-ylmethyl)-4-[1-(quinoxalin-2-ylcarbonyl)piperidin-4-yl]benzamide], with 68.2 nM; and `Cc1cc(C(=O)N2CCC(c3ccc(C(=O)NCc4ccn5ccnc5c4)cc3)CC2)n(C(C)(C)C)n1` [Example 981, 4-{1-[(1-tert-butyl-3-methyl-1H-pyrazol-5-yl)carbonyl]piperidin-4-yl}-N-(imidazo[1,2-a]pyridin-7-ylmethyl)benzamide], with 6.54 nM; and `O=C(NCc1ccn2ccnc2c1)Nc1ccc(C2CCN(C(=O)[C@@H]3COc4ccccc4O3)CC2)cc1` [Example 1012, 1-(4-{1-[(2S)-2,3-dihydro-1,4-benzodioxin-2-ylcarbonyl]piperidin-4-yl}phenyl)-3-(imidazo[1,2-a]pyridin-7-ylmethyl)urea], with 8.36 nM. In the case of `Cn1ncc2c(C(=O)N3CCC(c4ccc(C(=O)NCc5ccn6ccnc6c5)cc4)CC3)cccc21` [Example 1119, N-(imidazo[1,2-a]pyridin-7-ylmethyl)-4-{1-[(1-methyl-1H-indazol-4-yl)carbonyl]piperidin-4-yl}benzamide], the IC50 turned out to be 6.67 nM. `COC1CCC(C(=O)N2CCC(c3ccc(NC(=O)NCc4ccn5ccnc5c4)cc3)CC2)CC1` (centres unmarked) [Example 1025, 1-(imidazo[1,2-a]pyridin-7-ylmethyl)-3-(4-{1-[(4-methoxycyclohexyl)carbonyl]piperidin-4-yl}phenyl)urea] registered a half-inhibitory concentration (IC50) of 0.808 nM. In the case of `CC1Cc2cccc(C(=O)N3CCC(c4ccc(C(=O)NCc5ccn6ccnc6c5)cc4)CC3)c2O1` (centres unmarked) [Example 1107, N-(imidazo[1,2-a]pyridin-7-ylmethyl)-4-{1-[(2-methyl-2,3-dihydro-1-benzofuran-7-yl)carbonyl]piperidin-4-yl}benzamide], the IC50 was determined as 2.26 nM. Compared with the last compound, the IC50 is about 2.8-fold higher.
